What was measured:
BAT5 = BAT5 (Mus musculus, UniProt Q9Z1Q2); assay: biochemical
brain serine hydrolases = format: biochemical, mouse
KIAA1363 = KIAA1363 (Mus musculus, UniProt Q8BLF1); assay: biochemical
PLA2g7 = PLA2g7 (Mus musculus, UniProt Q60963); assay: biochemical
BAT5 (60 kDa hydrolase) = BAT5 (60 kDa hydrolase) (Mus musculus, UniProt Q9Z1Q2); format: biochemical
FAAH = FAAH (Mus musculus, UniProt O08914); assay: biochemical
ABHD12 = ABHD12 (Mus musculus, UniProt Q99LR1); assay: biochemical
ABHD12, sequence (Q99LR1 whole entry): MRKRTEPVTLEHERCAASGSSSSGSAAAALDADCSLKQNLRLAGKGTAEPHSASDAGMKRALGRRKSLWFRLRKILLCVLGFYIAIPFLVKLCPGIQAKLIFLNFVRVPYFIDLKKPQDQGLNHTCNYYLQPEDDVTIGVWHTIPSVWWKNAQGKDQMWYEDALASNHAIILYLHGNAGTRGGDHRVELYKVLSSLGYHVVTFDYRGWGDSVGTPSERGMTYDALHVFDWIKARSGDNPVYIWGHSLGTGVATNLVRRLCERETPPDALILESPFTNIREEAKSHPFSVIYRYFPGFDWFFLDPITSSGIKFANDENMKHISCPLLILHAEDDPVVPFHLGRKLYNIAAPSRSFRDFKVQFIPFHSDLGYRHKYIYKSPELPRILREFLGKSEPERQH

PLA2g7, sequence (Q60963 22-440): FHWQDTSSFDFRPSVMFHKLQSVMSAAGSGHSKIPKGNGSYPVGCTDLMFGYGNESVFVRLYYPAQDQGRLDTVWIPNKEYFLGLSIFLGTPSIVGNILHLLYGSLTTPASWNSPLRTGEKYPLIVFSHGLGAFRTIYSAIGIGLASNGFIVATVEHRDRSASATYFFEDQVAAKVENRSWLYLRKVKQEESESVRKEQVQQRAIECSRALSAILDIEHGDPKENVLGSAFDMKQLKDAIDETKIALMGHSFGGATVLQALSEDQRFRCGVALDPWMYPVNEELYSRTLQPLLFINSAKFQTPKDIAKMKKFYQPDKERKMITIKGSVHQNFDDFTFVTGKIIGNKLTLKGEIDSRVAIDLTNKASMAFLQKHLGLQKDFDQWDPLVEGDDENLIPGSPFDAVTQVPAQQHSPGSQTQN
BAT5, sequence (Q9Z1Q2 whole entry): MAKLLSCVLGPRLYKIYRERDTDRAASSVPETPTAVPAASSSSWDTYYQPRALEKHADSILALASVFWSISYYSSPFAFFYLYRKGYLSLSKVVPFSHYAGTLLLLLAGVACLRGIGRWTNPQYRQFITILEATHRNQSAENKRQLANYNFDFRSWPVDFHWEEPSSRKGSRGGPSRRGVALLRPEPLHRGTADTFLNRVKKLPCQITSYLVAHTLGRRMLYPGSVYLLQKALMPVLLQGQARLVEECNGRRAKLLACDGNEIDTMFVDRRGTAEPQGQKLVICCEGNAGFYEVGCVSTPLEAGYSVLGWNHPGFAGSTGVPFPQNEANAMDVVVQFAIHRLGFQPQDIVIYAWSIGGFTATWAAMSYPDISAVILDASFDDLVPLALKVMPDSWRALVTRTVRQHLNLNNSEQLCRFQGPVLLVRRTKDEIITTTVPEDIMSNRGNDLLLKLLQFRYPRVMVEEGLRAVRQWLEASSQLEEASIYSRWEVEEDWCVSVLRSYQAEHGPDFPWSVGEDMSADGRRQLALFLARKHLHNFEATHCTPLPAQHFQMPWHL
FAAH, sequence (O08914 whole entry): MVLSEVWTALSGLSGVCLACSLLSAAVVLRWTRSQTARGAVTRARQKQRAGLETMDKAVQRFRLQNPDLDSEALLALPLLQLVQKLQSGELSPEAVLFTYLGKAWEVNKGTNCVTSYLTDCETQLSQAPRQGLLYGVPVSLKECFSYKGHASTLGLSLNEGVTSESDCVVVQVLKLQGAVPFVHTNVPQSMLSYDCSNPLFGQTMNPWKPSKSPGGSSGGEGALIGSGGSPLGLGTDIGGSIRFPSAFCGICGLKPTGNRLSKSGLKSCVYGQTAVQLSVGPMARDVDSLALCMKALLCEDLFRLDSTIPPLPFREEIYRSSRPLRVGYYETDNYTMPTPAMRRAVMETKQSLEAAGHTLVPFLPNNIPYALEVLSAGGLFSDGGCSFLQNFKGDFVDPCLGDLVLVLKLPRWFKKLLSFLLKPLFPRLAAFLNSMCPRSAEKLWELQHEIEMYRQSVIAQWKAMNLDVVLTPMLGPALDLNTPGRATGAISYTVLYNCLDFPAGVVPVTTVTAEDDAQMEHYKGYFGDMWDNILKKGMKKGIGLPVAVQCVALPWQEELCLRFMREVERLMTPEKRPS
BAT5 (60 kDa hydrolase), sequence (Q9Z1Q2 whole entry): as the sequence (Q9Z1Q2 whole entry) above
KIAA1363, sequence (Q8BLF1 whole entry): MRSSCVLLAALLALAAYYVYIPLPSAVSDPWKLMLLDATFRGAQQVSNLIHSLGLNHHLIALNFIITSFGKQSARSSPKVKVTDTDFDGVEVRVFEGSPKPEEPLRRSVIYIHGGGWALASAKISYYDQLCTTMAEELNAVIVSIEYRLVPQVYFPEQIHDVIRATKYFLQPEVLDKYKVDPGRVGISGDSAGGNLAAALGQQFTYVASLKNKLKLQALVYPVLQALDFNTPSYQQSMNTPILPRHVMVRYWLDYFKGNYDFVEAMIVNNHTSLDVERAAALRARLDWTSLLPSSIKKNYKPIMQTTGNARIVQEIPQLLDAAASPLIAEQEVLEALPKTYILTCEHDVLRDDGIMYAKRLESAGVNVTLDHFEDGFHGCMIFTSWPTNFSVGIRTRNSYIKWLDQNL

Structure (SMILES)	IC50 (BAT5)	inhibition of recombinant BAT5 (in words) (BAT5)	number of hydrolase activities whose labeling is blocked (brain serine hydrolases)	IC50 (KIAA1363)	inhibition of recombinant KIAA1363 (in words) (KIAA1363)	IC50 (PLA2g7)	inhibition of recombinant PLA2g7 (in words) (PLA2g7)	sensitivity of 60 kDa hydrolase (tentatively BAT5) to inhibitor (BAT5 (60 kDa hydrolase))	IC50 (FAAH)	inhibition of recombinant FAAH (in words) (FAAH)	IC50 (ABHD12)
O=C(NCCCCCCNC(=O)ON=C1CCCCC1)ON=C1CCCCC1 [RHC80267]	10 to 70 µM	inhibited	three	10 to 70 µM	inhibited	10 to 70 µM	inhibited	sensitive	10 to 70 µM	inhibited	
CCCCCCCCCCC[C@@H](C[C@@H]1OC(=O)[C@H]1CCCCCC)OC(=O)[C@H](CC(C)C)NC=O [THL, tetrahydrolipstatin]	< 0.1 µM	inhibited				< 0.1 µM	inhibited	sensitive			< 0.1 µM

From publication PMC2634297 (Bioorganic & medicinal chemistry letters, 2008)
